Drawing on ChEMBL document CHEMBL5338744, “Development and Characterization of Benzoselenazole Derivatives as Potent and Selective c-MYC Transcription Inhibitors” (J Med Chem, 2023), this text covers IC50 for six compounds.

For orientation: IC50 means the point on the concentration scale where inhibition reaches its midpoint.

The first data set has as its system HepG2. The data set is described as follows: Cytotoxicity against human HepG2 cells assessed as reduction in cell viability incubated for 48 hrs by MTT assay. Type of data set: functional, cell-based. The note with it: HepG2, 48 h. (In general: Tetrazolium assays rely on reduction of a dye to a coloured formazan, in cell work by metabolically active cells.)
As for `CN(C)CCCn1c2ccccc2c2cc(/C=C/c3nc4ccccc4[se]3)ccc21`, the IC50 is above 100 µM.
With `CN(C)CCCn1c2ccccc2c2cc(/C=C/c3nc4ccccc4o3)ccc21`, the IC50 turned out to be 21.6 µM.
As for `CCn1c2ccccc2c2cc(/C=C/c3oc4ccccc4[n+]3C)ccc21`, the IC50 came out at 43.3 µM.
Consider `CCn1c2ccccc2c2cc(/C=C/c3nc4ccccc4o3)ccc21`, for which the IC50 amounted to 37.7 µM.
For `CCn1c2ccccc2c2cc(/C=C/c3nc4ccccc4[se]3)ccc21`, the IC50 was 13.4 µM.
As to `CCn1c2ccccc2c2cc(/C=C/c3[se]c4ccc5ccccc5c4[n+]3C)ccc21`, the IC50 was 4.5 µM.

In another data set the test system is HCT-116. The data set is described as follows: Cytotoxicity against human HCT-116 cells assessed as reduction in cell viability incubated for 48 hrs by MTT assay. Type of data set: functional, cell-based. The note with it: HCT-116, 48 h.
With `CN(C)CCCn1c2ccccc2c2cc(/C=C/c3nc4ccccc4[se]3)ccc21`, the IC50 came to 34.4 µM.
Take `CN(C)CCCn1c2ccccc2c2cc(/C=C/c3nc4ccccc4o3)ccc21`: the IC50 turned out to be 36.9 µM.
On the same count and under the same terms, the same measure for `CCn1c2ccccc2c2cc(/C=C/c3oc4ccccc4[n+]3C)ccc21`: 46.7 µM.
In the case of `CCn1c2ccccc2c2cc(/C=C/c3nc4ccccc4o3)ccc21`, the concentration for half-maximal inhibition (IC50) turned out to be 32.1 µM.
With `CCn1c2ccccc2c2cc(/C=C/c3nc4ccccc4[se]3)ccc21`, the concentration for half-maximal inhibition (IC50) turned out to be 19.5 µM.
Regarding `CCn1c2ccccc2c2cc(/C=C/c3[se]c4ccc5ccccc5c4[n+]3C)ccc21`, the IC50 was found to be 9 µM.

Tested on in a further data set: not listed separately
In words: Cytotoxicity against human NCM460 cells assessed as reduction in cell viability incubated for 48 hrs by MTT assay. Type of data set: toxicity, cell-based.
Conditions: not given
For `CN(C)CCCn1c2ccccc2c2cc(/C=C/c3nc4ccccc4[se]3)ccc21`, the IC50 at 48 h was above 100 µM.
As for `CN(C)CCCn1c2ccccc2c2cc(/C=C/c3nc4ccccc4o3)ccc21`, the IC50 at 48 h is above 100 µM.
On the same count and under the same terms, for `CCn1c2ccccc2c2cc(/C=C/c3oc4ccccc4[n+]3C)ccc21` the value was above 100 µM; for `CCn1c2ccccc2c2cc(/C=C/c3nc4ccccc4o3)ccc21`, above 100 µM; for `CCn1c2ccccc2c2cc(/C=C/c3nc4ccccc4[se]3)ccc21`, above 100 µM.
As for `CCn1c2ccccc2c2cc(/C=C/c3[se]c4ccc5ccccc5c4[n+]3C)ccc21`, the 50% inhibitory concentration (IC50) at 48 h amounted to 42.5 µM.
